These are literature values, as cited in US8785427B2, “Enzymatic process for obtaining 17 alpha-monoesters of cortexolone and/or its 9,11-dehydroderivatives” (Cosmo Dermatos Srl, priority 2007, dated 2014).

The conditions of this data set: both in vitro and in vivo on the animal; described in EP1421099.

`CCCC(=O)O[C@]1(C(=O)CO)CC[C@H]2[C@@H]3CCC4=CC(=O)CC[C@]4(C)C3=CC[C@@]21C` [9,11-dehydro-cortexolone-17-α-butanoate, 9,11-Dehydro-Cortexolone-17α-Butanoate]: the antiandrogenic biological activity result was “high antiandrogenic biological activity”.

With `CCC(=O)O[C@]1(C(=O)CO)CC[C@H]2[C@@H]3CCC4=CC(=O)CC[C@]4(C)[C@H]3CC[C@@]21C` [cortexolone 17α-propionate], the antiandrogenic biological activity entry is listed as “high antiandrogenic biological activity”.
